Like-named read-outs stand apart in the source and are kept apart here.
Key:
[1] = system: Staphylococcus aureus ATCC 43300 (MRSA); experiment: microbe, parasite or virus in culture; type: cell-based; conditions: for MIC Sa: CO‐ADD screening; for MIC: Table S1 panel, n=2
Protocol: (§1) All compounds submitted to CO‐ADD are initially screened against five bacterial strains (Staphylococcus aureus (MRSA), E. coli, Klebsiella pneumoniae, Pseudomonas aeruginosa, Acinetobacter baumannii) and two fungal strains (Candida albicans, Cryptococcus neoformans) at a single concentration (32 μg/mL or 20 μM) performed as a high‐throughput primary screening.[[11], [17a]] Any compounds that show significant growth inhibition against any of the tested strains at this step are then evaluated in a dose‐response assay against these same strains. […]
(§2) Smiles: C1C=CCCC(=CC1)C1=CCCC=CCC1.C[Pt]C.C[Pt]C […]
(§3) ATCC strains were sourced from the American Type Culture Collection and NRS strains from NARSA (Network on Antimicrobial Resistance in Staphylococcus aureus) via BEI Resources (www.beiresources.org), with clinical MSSA and MRSA isolates from Prof Graeme Nimmo, Queensland […]
(§4) Health Central Pathology. […]
(§5) Antibacterial minimum inhibitory concentration (MIC) assay
(§6) Compound Assay Plate Preparation: Compounds were dissolved in DMSO at 10mM (CO-ADD screening) or 4 mM (follow up screening) and were plated in a 2-fold dose response from 20 to 0.156 µM or 200 to 0.006 µM respectively, with a maximum of 0.5% or 1% DMSO, final in the assay […]
(§7) plated in a 2-fold dose response from 200 to 0.006 µM, with a maximum of 1 % DMSO, final in the assay concentration. (in-house screening)
(§8) For all the bacterial assays, each strain was cultured in Cation-adjusted Mueller Hinton broth (CAMHB; Bacto Laboratories 212322) at 37 °C overnight. A sample of each culture was then diluted 40-fold in fresh CAMHB and incubated at 37 °C for 1.5–3 h. The resultant mid-log phase cultures were diluted with CAMHB (CFU mL−1 measured by OD600), then added to each well of the compound-containing plates (384-well non-binding surface (NBS) plates; Corning CLS3640), giving a cell density of 5 × 10^5 CFU mL−1 and a total volume of 50 μL. Plates were covered and incubated at 37 °C for 18 h without shaking. Inhibition of bacterial growth was determined measuring absorbance at 600 nm (OD600), using media only as negative control and bacteria without inhibitors as positive control. MIC values were determined as the lowest concentration at which the growth was inhibited at ≥80%. Colistin sulfate (Sigma C4461) and vancomycin HCl (Sigma 861987) were used as internal controls on each plate for Gram-negative and Gram-positive bacteria, respectively. […]

[2] = system: Acinetobacter baumannii ATCC 19606; experiment: Antibacterial MIC assay; type: cell-based; conditions: CO‐ADD screening
Protocol: as §1, §2, §3, §4, §5, §6, §7, §8

[3] = system: Escherichia coli ATCC 25922; experiment: Antibacterial MIC assay; type: cell-based; conditions: CO‐ADD screening
Protocol: as §1, §2, §3, §4, §5, §6, §7, §8

[4] = system: Pseudomonas aeruginosa ATCC 27853; experiment: Antibacterial MIC assay; type: cell-based; conditions: CO‐ADD screening
Protocol: as §1, §2, §3, §4, §5, §6, §7, §8

[5] = system: Klebsiella pneumoniae ATCC 700603 (ESBL SHV‐18)
Protocol: as §1, §2, §3, §4, §5, §6, §7, §8

[6] = system: Candida albicans ATCC 90028; experiment: Antifungal MIC (CO-ADD screening); type: cell-based
Protocol: (§9) InChIKey: PHIWIZAHOBWKFJ-HPCBIOCFSA-N
(§10) Health Central Pathology. Candida albicans (ATCC 90028, NCCLS 11), Cryptococcus neoformans
as §5
(§11) concentration. (in-house screening)
(§12) Bacto Laboratories 212322) at 37 °C overnight.

[7] = system: Cryptococcus neoformans H99 ATCC 208821; experiment: Antifungal MIC (CO-ADD screening); type: cell-based
Protocol: as §9, §10, §5, §11, §12

[8] = system: HEK-293 ATCC CRL-1573 human embryonic kidney cells; type: cell-based
Protocol: As part of the CO‐ADD screening, all compounds that show any activity against a microbial strain are evaluated for their cytotoxicity against human embryonic kidney cells (HEK‐293) and for haemolysis against human red blood cells. None of the compounds tested for cytotoxicity (Pt1‐9 and Pd1) caused any significant cell death up to concentrations of 100 μM. […] We have also observed higher IC50 values for the methylated complexes Pt3 and Pt4 against HeLa cells in previous work.[16] […]
(§13) inhibitors as positive control.
(§14) Tamoxifen (Sigma T5648) was used
(§15) as internal control on each plate.
in a Neubauer haemocytometer. […]

human red blood cells = experiment: Haemolysis assay; type: cell-based; conditions: for Haemolysis HC10: concentration inducing 10 % haemolysis; for Haemolysis HC50: concentration inducing 50 % haemolysis
Protocol: As part of the CO‐ADD screening, all compounds that show any activity against a microbial strain are evaluated for their cytotoxicity against human embryonic kidney cells (HEK‐293) and for haemolysis against human red blood cells. None of the compounds tested for cytotoxicity (Pt1‐9 and Pd1) caused any significant cell death up to concentrations of 100 μM. […] We have also observed higher IC50 values for the methylated complexes Pt3 and Pt4 against HeLa cells in previous work.[16]
(§16) The resultant mid-log phase cultures were diluted
(§17) Gram-negative and Gram-positive bacteria, respectively.
(§18) final concentration range of 0.8 – 100 µM.
as §13, §14, §15
in a Neubauer haemocytometer.
incubated for 1 h at 37 °C, without shaking.
HC10 and HC50 (concentration at which 10%
for top, bottom and slope using Prism 8. […]

[9] = system: Enterococcus faecium ATCC 51559, MDR, VRE (VanA); experiment: Antibacterial MIC assay, Gram-positive panel; type: cell-based; conditions: Table S1 panel; n=2
Protocol: as §2, §3, §4, §5, §6, §7, §8

[10] = system: Staphylococcus aureus NRS 17, GISA; experiment: Antibacterial MIC assay, Gram-positive panel; type: cell-based; conditions: Table S1 panel; n=2
Protocol: as §2, §3, §4, §5, §6, §7, §8

[11] = system: E. coli lpxC (non‐efficient lipid A production mutant); experiment: MIC against E. coli membrane mutants; type: cell-based, Escherichia coli
Protocol: as §5, §11, §12, §16, §17, §18
(§19) inhibitors as positive control. […]

[12] = system: E. coli tolC (efflux pump deficient); experiment: MIC against E. coli membrane mutants; type: cell-based, Escherichia coli
Protocol: as §5, §11, §12, §16, §17, §18, §19

[13] = system: B. subtilis ATCC 6051 type strain; experiment: MIC in the presence of human serum (serum reversal); type: cell-based, Bacillus subtilis; conditions: 10% serum
Description: (§20) To obtain some initial insight into the apparent disparity between in vitro and in vivo results, we repeated the MIC experiments against four selected Gram‐positive strains in the presence of 10 % or 50 % human serum (Table S3). Pt1 and Pt2 maintained some antibacterial activity against B. subtilis in the presence of 10 % serum, but a complete loss of activity was observed against MRSA and GISA (50 % serum), and VRE (10 % serum). […] Systemic administration is therefore unlikely to be a suitable administration route for this class of compounds unless an alternative formulation that can prevent serum binding (e. g. by lipid or nanoparticle encapsulation) can be found. […] Further in vivo studies should therefore focus on more suitable disease models. […]
as §5, §11, §12, §16, §17, §18, §19

[14] = system: S. aureus ATCC 43300 MRSA; experiment: as above; type: cell-based, Staphylococcus aureus; conditions: 50% serum
Description: as §20, §5, §11, §12, §16, §17, §18, §19

S. aureus NRS 17 GISA = experiment: as above; type: cell-based, Staphylococcus aureus; conditions: 50% serum
Description: as §20, §5, §11, §12, §16, §17, §18, §19

[15] = system: E. faecium ATCC 51559 MDR, VRE; experiment: as above; type: cell-based, Enterococcus faecium; conditions: 10% serum
Description: as §20, §5, §11, §12, §16, §17, §18, §19

[16] = system: Staphylococcus aureus ATCC 25923, MSSA; experiment: Antibacterial MIC assay, Gram-positive panel; type: cell-based; conditions: Table S1 panel; n=4
Description: (§21) Bis(dimethyl-η4)-((1Z,1'E,5Z,5'E)-(1,1'-bi(cyclooctadiene))diplatinum(II) (Pt14) Smiles: C1C=CCCC(=CC1)C1=CCCC=CCC1.C[Pt]C.C[Pt]C
as §9
(§22) Link to selected data that was repeated to approve the identity of the compounds: https://dx.doi.org/10.14272/PHIWIZAHOBWKFJ-HPCBIOCFSA-N.1
as §3, §4, §5, §6, §7, §8

[17] = system: Staphylococcus aureus VRS 1, VRSA (VanA); experiment: Antibacterial MIC assay, Gram-positive panel; type: cell-based; conditions: Table S1 panel; n=4
Description: as §21, §9, §22, §3, §4, §5, §6, §7, §8

[18] = system: Enterococcus faecalis Clinical Isolate, VRE (VanB); experiment: Antibacterial MIC assay, Gram-positive panel; type: cell-based; conditions: Table S1 panel; n=4
Protocol: as §2, §3, §4, §5, §6, §7, §8

[19] = system: Enterococcus faecium ATCC 35667, type strain; experiment: Antibacterial MIC assay, Gram-positive panel; type: cell-based; conditions: Table S1 panel; n=4
Protocol: as §2, §3, §4, §5, §6, §7, §8

[20] = system: Staphylococcus epidermidis ATCC 14990, type strain; experiment: Antibacterial MIC assay, Gram-positive panel; type: cell-based; conditions: Table S1 panel; n=4
Protocol: as §2, §3, §4, §5, §6, §7, §8

[21] = system: Staphylococcus epidermidis NRS 60, VISE; experiment: Antibacterial MIC assay, Gram-positive panel; type: cell-based; conditions: Table S1 panel; n=4
Protocol: as §2, §3, §4, §5, §6, §7, §8

[22] = system: Enterococcus faecalis ATCC 29212, control strain; experiment: Antibacterial MIC assay, Gram-positive panel; type: cell-based; conditions: Table S1 panel; n=4
Protocol: as §2, §3, §4, §5, §6, §7, §8

[23] = system: Enterococcus faecium Clinical Isolate, VRE (VanA); experiment: Antibacterial MIC assay, Gram-positive panel; type: cell-based; conditions: Table S1 panel; n=4
Protocol: as §2, §3, §4, §5, §6, §7, §8

[24] = system: Bacillus subtilis ATCC 6051, type strain; experiment: Antibacterial MIC assay, Gram-positive panel; type: cell-based; conditions: Table S1 panel; n=2
Protocol: as §2, §3, §4, §5, §6, §7, §8

Row | Compound | MIC Sa [1] | MIC Ab [2] | MIC Ec [3] | MIC Pa [4] | MIC Kp [5] | MIC Ca [6] | MIC Cn [7] | CC50 [8] | Haemolysis HC10 (human red blood cells) | Haemolysis HC50 (human red blood cells) | MIC E. coli lpxC ([11]; Table S2) | MIC E. coli TolC ([12]; Table S2) | MIC in the presence of human serum [13] | MIC in the presence of human serum [14] | MIC in the presence of human serum (S. aureus NRS 17 GISA) | MIC in the presence of human serum [15] | MIC [16] | MIC [17] | MIC [19] | MIC [20] | further results
1 | CCC1=CCCC=CCC1.[CH3][Pt][C](F)(F)C(F)(F)C(F)(F)C(F)(F)C(F)(F)C(F)(F)C(F)(F)C(F)(F)F [Pt9] | >20 µM | >20 µM | >20 µM | >20 µM | >20 µM | >20 µM | 1.25 µM | > 100 µM | >100 µM | >100 µM | > 200 µM | > 200 µM | > 200 µM | > 200 µM | > 200 µM | > 200 µM |  |  |  |  | MIC [9]: 100 µM; MIC [10]: 100 µM
2 | C1=CCCC=CCC1.[CH3][Pt][CH3] [Pt3] |  |  |  |  |  |  |  | > 100 µM | >100 µM | >100 µM | 200 µM | > 200 µM | > 200 µM | > 200 µM | > 200 µM | > 200 µM | 50 µM | > 200 µM | 200 µM | 6.25 µM | MIC [18]: 200 µM; MIC [21]: 25 µM
3 | Colistin [reference compound] |  |  |  |  |  |  |  |  |  |  |  |  |  |  |  |  |  |  |  |  | MIC Ab ([2]; control antibiotic): 0.25 µg/mL; MIC Ec ([3]; control antibiotic): 0.125 µg/mL; MIC Pa ([4]; control antibiotic): 0.25 µg/mL; MIC Kp ([5]; CO‐ADD screening, control antibiotic): 0.25 µg/mL; MIC E. coli lpxC ([11]; Table S2, colistin control): 0.03 µg/mL; MIC E. coli TolC ([12]; Table S2, colistin control): 0.03 µg/mL
4 | C1=CCCC=CCC1.[CH3][Pt][C](F)(C(F)(F)F)C(F)(F)F [Pt6] | 10 µM | >20 µM | >20 µM | >20 µM | >20 µM | 20 µM | 20 µM | > 100 µM | >100 µM | >100 µM |  | > 200 µM | > 200 µM | > 200 µM | > 200 µM | > 200 µM | 100 µM | 200 µM | > 200 µM | 100 µM | MIC [1]: 6.25 µM; MIC [22]: > 200 µM; MIC [18]: > 200 µM; MIC [23]: 200 µM; MIC [21]: 200 µM
5 | CC(C)C([O][Pt][Cl])/C1=C/CC/C=C\CC1 (centres unmarked) [Pt8] | >20 µM | >20 µM | >20 µM | >20 µM | >20 µM | 10 µM | 1.25 µM | > 100 µM | >100 µM | >100 µM | > 200 µM |  | 200 µM | > 200 µM | > 200 µM | > 200 µM | 25 µM | 12.5 µM | 100 µM | 6.25 µM | MIC [1]: 3.12 µM; MIC [24]: 50 µM; MIC [22]: 100 µM; MIC [9]: 50 µM; MIC [23]: 100 µM; MIC [10]: 50 µM; MIC [21]: 25 µM

— publication PMC8596843, “Platinum Cyclooctadiene Complexes with Activity against Gram‐positive Bacteria” (Chemmedchem, 2021)
